In patent US12011444B2, “N-substituted indole derivatives as PGE2 receptor modulators” (Idorsia Pharmaceuticals Ltd, priority 2015, dated 2024):

Experiments:
[1] = biological target: EP2 (Homo sapiens (Human), UniProt P43116);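 further: antagonism of PGE2-stimulated cAMP accumulation in SF295 human glioblastoma cells with endogenous EP2, cAMP read by HTRF, expressed relative to DMSO control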
[2] = biological target: EP4 (Homo sapiens (Human), UniProt P35408); assay: hEP4 cAMP assay (BT549 breast cancer cells, HTRF cAMP); assay type: cell-based
Description: Plate is pre-incubated 45 minutes at room temperature. Subsequently, 2.5 microliters of PGE2 (final conc. 6 nM) are transferred into the assay plate. Plate is incubated 30 minutes at room temperature.

[3] = antagonistic activity, mean values where measured multiple times

Sequence of EP4 (P35408 whole entry): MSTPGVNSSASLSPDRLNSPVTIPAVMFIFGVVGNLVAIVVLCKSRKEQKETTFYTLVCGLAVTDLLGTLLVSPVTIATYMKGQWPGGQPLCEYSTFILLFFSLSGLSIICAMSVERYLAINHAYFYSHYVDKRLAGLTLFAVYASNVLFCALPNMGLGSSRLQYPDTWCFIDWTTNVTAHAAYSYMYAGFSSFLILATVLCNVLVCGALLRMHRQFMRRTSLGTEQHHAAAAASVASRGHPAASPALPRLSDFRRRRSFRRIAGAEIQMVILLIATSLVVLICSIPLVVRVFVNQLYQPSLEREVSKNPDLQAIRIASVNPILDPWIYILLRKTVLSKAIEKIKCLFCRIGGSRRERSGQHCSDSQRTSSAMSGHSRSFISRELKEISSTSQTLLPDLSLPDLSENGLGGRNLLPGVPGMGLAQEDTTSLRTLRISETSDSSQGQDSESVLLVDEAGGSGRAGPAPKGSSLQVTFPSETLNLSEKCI
Sequence of EP2 (P43116 whole entry): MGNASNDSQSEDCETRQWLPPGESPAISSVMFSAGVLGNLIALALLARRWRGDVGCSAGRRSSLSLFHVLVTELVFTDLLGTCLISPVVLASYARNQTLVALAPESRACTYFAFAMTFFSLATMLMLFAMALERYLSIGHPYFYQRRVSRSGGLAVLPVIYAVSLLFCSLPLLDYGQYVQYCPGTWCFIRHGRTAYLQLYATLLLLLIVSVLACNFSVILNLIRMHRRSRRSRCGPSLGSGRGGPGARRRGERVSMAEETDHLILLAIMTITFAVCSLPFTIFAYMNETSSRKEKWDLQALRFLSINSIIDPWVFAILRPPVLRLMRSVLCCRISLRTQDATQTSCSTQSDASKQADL

IC50 [1] [nM] | IC50 [2, 3] [nM] | IC50 ([2]; (*): measured using the cAMP assay) [nM] | Structure (SMILES)
12 | 122 | – | Cc1ccc(F)c2c1cc(C)n2CCNc1cc(-c2ccc(C(=O)O)c(OC(F)F)c2)ncn1 [compound 601]
5 | 78 | – | COc1cccc2c1cc(C)n2CCNc1cc(-c2ccc(-c3nc(C(=O)O)cs3)cc2)ncn1 [compound 557]
17 | 165 | – | CCOc1cc(-c2cc(NCCn3c(C)cc4c(OC)ccc(F)c43)ncn2)cc(F)c1C(=O)O [compound 490]
2 | 106 | – | COc1cc(F)cc2c1cc(C)n2CCNc1cc(-c2ccc(C(=O)O)c(NCC(F)(F)F)c2)ncn1 [compound 587, 4-{6-[2-(6-Fluoro-4-methoxy-2-methyl-indol-1-yl)-ethylamino]-pyrimidin-4-yl}-2-(2,2,2-trifluoro-ethylamino)-benzoic acid]
7 | 107 | – | Cc1ccc(F)c2c1cc(C)n2CCNc1cc(-c2ccc(C(=O)O)c(NCC(F)(F)F)c2)ncn1 [compound 560, 4-{6-[2-(7-Fluoro-2,4-dimethyl-indol-1-yl)-ethylamino]-pyrimidin-4-yl}-2-(2,2,2-trifluoro-ethylamino)-benzoic acid]
53 | 153 | – | CCCc1cc(-c2cc(NCCn3c(C)cc4c(C)cc(F)cc43)ncn2)cc(F)c1C(=O)O [compound 415]
25 | 156 | – | COc1ccc(F)c2c1cc(C)n2CCNc1cc(-c2ccc(-c3oncc3C)cc2)ncn1 [compound 737, [2-(7-Fluoro-4-methoxy-2-methyl-indol-1-yl)-ethyl]-{6-[4-(4-methyl-isoxazol-5-yl)-phenyl]-pyrimidin-4-yl}-amine]
54 | 418 | – | COc1ccc(F)c2c1cc(C)n2CCNc1cc(-c2cccc(-n3cccn3)c2)ncn1 [compound 556]
88 | 809 | – | Cc1cc(F)cc2c1cc(C)n2CCNc1cc(-c2ccc3nccnc3c2)ncn1 [compound 733]
60 | 136 | – | COc1ccc(F)c2c1cc(C)n2CCNc1cc(-c2ccc(-c3oc(CCC(=O)O)nc3C)cc2)ncn1 [compound 652]
24 | 395 | – | CCOc1cc(-c2cc(NCCn3c(C)cc4c(OC)ccc(F)c43)ncn2)cc(CC)c1C(=O)O [compound 618]
5 | 339 | – | Cc1cc2c(Cl)cc(Cl)cc2n1CCNc1cc(-c2ccc(-c3nc(C(=O)O)cs3)cc2)ncn1 [compound 551]
13 | 403 | – | CCOc1cc(-c2cc(NCCn3c(C)cc4c(OC)ccc(F)c43)ncn2)ccc1C(=O)NOC [Example 765, 2-Ethoxy-4-{6-[2-(7-fluoro-4-methoxy-2-methyl-indol-1-yl)-ethylamino]-pyrimidin-4-yl}-N-methoxy-benzamide]
131 | 865 | – | COc1ccc(F)c2c1cc(C)n2CCNc1cc(-c2ccc(C(=O)NCCN(C)C)cc2)ncn1 [compound 549]
49 | 120 | – | Cc1cc(F)c(F)c2c1cc(C)n2CCNc1cc(-c2cc(Cl)c(C(=O)O)c(OCC(C)C)c2)ncn1 [compound 694]
51 | 356 | – | CCOc1cc(-c2cc(NCCn3c(C)cc4c(C)cc(F)cc43)nc(C(F)(F)F)n2)sc1C(=O)O [compound 626]
55 | 760 | – | COc1cc(F)cc2c1cc(C)n2CCNc1cc(-c2ccc(-c3cc(F)ccn3)cc2)ncn1 [Example 759, [2-(6-Fluoro-4-methoxy-2-methyl-indol-1-yl)-ethyl]-{6-[4-(4-fluoro-pyridin-2-yl)-phenyl]-pyrimidin-4-yl}-amine]
183 | 655 | – | Cc1ccc(F)c2c1cc(C)n2CCNc1cc(-c2ccc3c(c2)OCCO3)ncn1 [compound 740]
33 | 573 | – | Cc1cc2c(Cl)cc(Cl)cc2n1CCNc1cc(-c2ccc(-c3csc(C(=O)O)n3)cc2)ncn1 [compound 550]
11 | – | 29 | CCOc1cc(-c2cc(NCCn3c(C#N)cc4c(Cl)cc(F)c(F)c43)ncn2)sc1C(=O)O [Example 941, 5-{6-[2-(4-Chloro-2-cyano-6,7-difluoro-indol-1-yl)-ethylamino]-pyrimidin-4-yl}-3-ethoxy-thiophene-2-carboxylic acid]
26 | 98 | – | CCCOc1cc(-c2cc(NCCn3c(C)cc4c(C)c(F)cc(F)c43)ncn2)cc(Cl)c1C(=O)O [compound 629]
166 | 257 | – | COc1cc(F)cc2c1cc(C)n2CCNc1cc(-c2ccc(-c3oc(CCC(=O)O)nc3C)cc2)ncn1 [compound 651]
48 | 501 | – | CCCc1cc(-c2cc(NCCn3c(C)cc4c(C)ccc(F)c43)ncn2)cc(OCC)c1C(=O)O [compound 624]
32 | 80 | – | COc1cc(F)c(F)c2c1cc(C)n2CCNc1cc(-c2cc(Cl)c(C(=O)O)c(OCC(F)(F)F)c2)ncn1 [compound 722]

IC50 [1] [nM] | IC50 [2, 3] [nM] | IC50 ([2]; (*): measured using the cAMP assay) [nM] | Structure (SMILES)
20 | 216 | – | Cc1c(F)cc(F)c2c1cc(C)n2CCNc1cc(-c2ccc(C(=O)O)c(OC(F)F)c2)ncn1 [compound 510]
11 | 41 | – | COc1cc(F)cc2c1cc(C)n2CCNc1cc(-c2ccc(-c3nc(C(=O)O)cs3)cc2)ncn1 [compound 579]
63 | 512 | – | Cc1ccc(F)c2c1cc(C)n2CCNc1cc(-c2ccc(-c3csc(CC(N)=O)n3)cc2)ncn1 [Example 784, 2-[4-(4-{6-[2-(7-Fluoro-2,4-dimethyl-indol-1-yl)-ethylamino]-pyrimidin-4-yl}-phenyl)-thiazol-2-yl]-acetamide]
2 | 12 | – | CCCOc1cc(-c2cc(NCCn3c(C)cc4c(OC)ccc(F)c43)ncn2)sc1C(=O)O [compound 677]
81 | 425 | – | COc1cc(-c2ccc(-c3cc(NCCn4c(C)cc5c(OC)cc(F)cc54)ncn3)cc2)ncn1 [Example 749, [2-(6-Fluoro-4-methoxy-2-methyl-indol-1-yl)-ethyl]-{6-[4-(6-methoxy-pyrimidin-4-yl)-phenyl]-pyrimidin-4-yl}-amine]
42 | 131 | – | Cc1cc(F)c(F)c2c1cc(C)n2CCNc1cc(-c2ccc3[nH]ccc3c2)ncn1 [compound 696, [2-(6,7-Difluoro-2,4-dimethyl-indol-1-yl)-ethyl]-[6-(1H-indol-5-yl)-pyrimidin-4-yl]-amine]
25 | 775 | – | CCc1cc(-c2cc(NCCn3c(C)cc4c(OC)ccc(Cl)c43)ncn2)cc(F)c1C(=O)O [compound 429]
2 | 13 | – | CCNc1cc(-c2cc(NCCn3c(C)cc4c(OC)ccc(F)c43)ncn2)ccc1-c1nnn[nH]1 [compound 665, {6-[3-Ethylamino-4-(1H-tetrazol-5-yl)-phenyl]-pyrimidin-4-yl}-[2-(7-fluoro-4-methoxy-2-methyl-indol-1-yl)-ethyl]-amine]
2 | 29 | – | CNc1nnc(-c2ccc(-c3cc(NCCn4c(C)cc5c(OC)ccc(F)c54)ncn3)cc2)s1 [compound 471, [2-(7-Fluoro-4-methoxy-2-methyl-indol-1-yl)-ethyl]-{6-[4-(5-methylamino-[1,3,4]thiadiazol-2-yl)-phenyl]-pyrimidin-4-yl}-amine]
96 | 448 | – | COc1cc(-c2cc(NCCn3c(C)cc4c(OC)ccc(Cl)c43)ncn2)cc(C)c1C(=O)O [compound 404]
17 | 77 | – | Cc1cc(F)cc2c1cc(C)n2CCNc1cc(-c2ccc(-c3nnc(N)s3)cc2)ncn1 [compound 569]
387 | 994 | – | Cc1ccc(F)c2c1cc(C)n2CCNc1cc(-c2ccc3c(c2)CN(CC(C)C)C3=O)ncn1 [compound 467]
39 | 148 | – | COc1ccc(F)c2c1cc(C)n2CCNc1cc(-c2ccc(-c3cncn3C)cc2)ncn1 [compound 584]
2 | 3 | – | CCCCOc1cc(-c2cc(NCCn3c(C)cc4c(OC)ccc(F)c43)ncn2)sc1C(=O)O [compound 673]
6 | 142 | – | COc1cc(F)cc2c1cc(C)n2CCNc1cc(-c2ccc(C(=O)O)c(OC(F)F)c2)ncn1 [compound 630]
34 | 238 | – | COc1cc(F)cc2c1cc(C)n2CCNc1cc(-c2ccc(-c3ccccn3)cc2)ncn1 [compound 727]
2 | 240 | – | CCNc1cc(-c2cc(NCCn3c(C)cc4c(C#N)ccc(F)c43)ncn2)ccc1C(=O)O [compound 451]
35 | 928 | – | CCOc1cc(-c2cc(NCCn3c(C)cc4c(C)ccc(F)c43)ncn2)ccc1C(=O)NOCc1ccccc1 [Example 768, N-Benzyloxy-2-ethoxy-4-{6-[2-(7-fluoro-2,4-dimethyl-indol-1-yl)-ethylamino]-pyrimidin-4-yl}-benzamide]
20 | 251 | – | CCONC(=O)c1ccc(-c2cc(NCCn3c(C)cc4c(OC)ccc(F)c43)ncn2)cc1OCC [Example 767, 2,N-Diethoxy-4-{6-[2-(7-fluoro-4-methoxy-2-methyl-indol-1-yl)-ethylamino]-pyrimidin-4-yl}-benzamide]
72 | 958 | – | Cc1cc(-c2ccc(-c3cc(NCCn4c(C)cc5c(C)ccc(F)c54)ncn3)cc2)on1 [compound 714]
44 | 345 | – | COc1cnc(-c2ccc(-c3cc(NCCn4c(C)cc5c(OC)cc(F)cc54)ncn3)cc2)nc1 [Example 757, [2-(6-Fluoro-4-methoxy-2-methyl-indol-1-yl)-ethyl]-{6-[4-(5-methoxy-pyrimidin-2-yl)-phenyl]-pyrimidin-4-yl}-amine]
7 | 64 | – | COc1cc(F)cc2c1cc(C)n2CCNc1cc(-c2cc(Cl)c(C(=O)O)c(OCC(C)C)c2)ncn1 [compound 692]
20 | 443 | – | Cc1cc2c(F)c(F)ccc2n1CCNc1cc(-c2ccc(C(=O)O)c(CC(C)C)c2)ncn1 [compound 411]
